# In article PMC8620715, “Biological Activity of Triazolopyrimidine Copper(II) Complexes Modulated by an Auxiliary N-N-Chelating Heterocycle Ligands” (Molecules, 2021):
# Legend:
# λ-DNA = experiment: UV-visible absorption titration with λ-DNA; assay type: binding, bacteriophage lambda; conditions: 5 µM complex, increasing DNA
# Procedure: To determine if the compounds can interact with DNA, the 48,500 base-pairs genomic DNA from bacteriophage lambda (λ-DNA, Promega, MA, USA) was used. A stock solution of 10 µM λ-DNA (base-pair concentration) was prepared in 10 mMTris/HCl buffer containing 1 mM NaCl, pH 8.
# To determine the DNA intercalating ability of complexes (1) and (2), we used the 48,500 base-pairs genomic DNA from the bacteriophage lambda (λ-DNA, Promega, Madison, USA). A 10 µM λ-DNA (base-pair concentration) stock solution was prepared in 10 mM Tris/HCl buffer, pH 8, containing 1 mM NaCl. The UV-visible absorption titration experiments were done using a constant complex concentration (5 µM). […] After DNA addition, the solutions were left to equilibrate for 5 min at room temperature before recording the spectra with a Jasco V-630 spectrophotometer. Stock solutions of compounds (1) and (2) were prepared in DMSO (1 mM) and diluted to 5 µM in 10 mM Tris/HCl containing 1 mM NaCl, pH 8.
# The UV-Vis absorption titration experiments were done, keeping the complex concentration constant ([…]) and increasing the concentration of λ-DNA in Tris-HCl/NaCl buffer solution at room temperature until a saturation state was achieved. After DNA addition, the solutions were allowed to equilibrate for 5 min at room temperature. The UV-Vis absorption spectra were recorded with a Jasco V-630 spectrophotometer, using a 10 mm quartz cell. […]
# P. aeruginosa 27853 = experiment: MIC by broth microdilution; assay type: cell-based, Pseudomonas aeruginosa; conditions: P. aeruginosa 27853, planktonic
# Procedure: The antibacterial assays were carried out using two Gram-negative (Escherichia coli ATCC 25922, Pseudomonas aeruginosa ATCC 27853) and two Gram-positive (Staphylococcus aureus ATCC 25923, MRSA (meticillin-Resistant S. aureus) 388 (ATCC, American Type Culture Collection) bacteria.
# The antimicrobial activity of the two complexes (1) and (2) was assessed using their minimum inhibitory concentration (MIC) by the broth microdilution method, as previously described by the Clinical and Laboratory Standard Institute (CLSI; M07-A9 document). A broth microdilution assay was performed in sterile 96-well plates using Muller-Hinton broth (Scharlau; MHB). The compounds solubilized in […] (1,000 μg/mL) were serially diluted in 90 μL MHB, in concentrations ranging between 500 and 0.97 μg/mL. Overnight cultures were used to prepare suspension in phosphate-buffered saline (pH 7.0) to match a 0.5 McFarland density. The bacterial suspensions were further diluted to 1:100 by adding 0.1 mL of bacterial suspension to 9.9 mL of MHB. A volume of 10 μL of this dilution was added to each well of columns 1–10, containing different concentrations of the tested compounds. […] Additionally, 10 μL of the diluted bacterial suspension was added in column 11 (the growth control). A volume of 100 μL MHB was added to the microtiter plates’ sterility control wells (column 12). After inoculation, the plates were incubated at 35 ± 2 °C for 18 h. Growth was measured as light absorbance (620 nm) in comparison to an uninoculated well (negative control). It was detected using a microtiter plate reader (Apollo LB 911ELISA (Berthold Technologies GmbH & Co. KG, Waltham, MA, USA)). The MIC of each compound was defined as the lowest concentration required to inhibit bacterial growth.
Compound,change of absorption spectrum on binding to λ-DNA (λ-DNA),MIC (P. aeruginosa 27853) [µM]
"Cc1cc(C)n2ncnc2n1.Cc1cc(C)n2ncnc2n1.Cc1cc(C)n2ncnc2n1.O.[Cu+2].[O-][Cl+3]([O-])([O-])[O-].[O-][Cl+3]([O-])([O-])[O-].c1ccc(-c2ccccn2)nc1 [Complex (1), [Cu(bpy)(dmtp)2(OH2)](ClO4)2·dmtp]",decrease in the absorption intensity,710
"Cc1cc(C)n2ncnc2n1.Cc1cc(C)n2ncnc2n1.Cc1cc(C)n2ncnc2n1.O.[Cu+2].[O-][Cl+3]([O-])([O-])[O-].[O-][Cl+3]([O-])([O-])[O-].c1cnc2c(c1)ccc1cccnc12 [Complex (2), [Cu(phen)(dmtp)2(OH2)](ClO4)2·dmtp]",decrease in the absorption intensity,690
